# In patent US20080096228A1, “Compositions And Methods Relating To Mammalian Internal Ribosome Entry Sites” (THE REGENTS OF THE UNIVERSITY OF CALIFORNIA, priority 2006, published 2008):
# Several values for one entry are separate records, joined by “and”; a condition that tells them apart may be missing. Equal values may be shown once. Where a name gives a salt, the structure may show the parent alone.
# Legend:
# [1] = test system: LEF-1 protein expression in K562 cells; test: LEF-1 protein expression in K562 cells, Western blot; format: cell-based; details: imatinib 2 uM, rapamycin 10 ng/mL or both, 24 hours
# [2] = test system: LEF1 mRNA; test: Northern blot of LEF1 mRNA in K562 cells; format: cell-based; details: 2 μM imatinib, 24 hours; for decrease of LEF1 mRNA levels (3.6 kb and 3.0 kb mRNAs): rapamycin 10 ng/mL or both, not normalized
# Protocol: Total RNA was isolated from K562 cells using TriZol reagent (Invitrogen) according to the manufacturer's instructions. […] Approximately 20 μg of total RNA from K562 cells was analyzed on a Northern blot for LEF1 expression, respectively. Northern blotting was carried out as described elsewhere and the LEF1 ORF (open reading frame) probe was generated as described elsewhere and radiolabeled with ^32P-dATP. The blot was stripped and rehybridized with a ^32P-dATP radioloabeled GAPDH loading control probe.
# Panel B: Northern blot analysis of total RNA isolated from K562 cells treated with inhibitors as described above. The three LEF1 mRNAs are indicated by arrows. A radiolabeled LEF-1 ORF cDNA probe was used to detect LEF1 mRNAs in the top panel. The blot was stripped and reprobed with GAPDH.
# [3] = test system: GAPDH mRNA; test: Northern blot of GAPDH mRNA (loading control) in K562 cells; format: cell-based; details: 2 μM imatinib, 24 hours
# [4] = test system: LEF-1 IRES; test: Dicistronic DNA transfection dual luciferase assay, LEF-1 IRES, K562 cells; format: cell-based; details: 2 μM imatinib, 24 hour treatment
# [5] = test system: cap-dependent translation (RLuc); test: Dicistronic DNA transfection, RLuc cap-dependent translation, K562 cells; format: cell-based; details: 2 μM imatinib
# [6] = test system: cap-dependent translation (RLuc); test: Capped dicistronic RNA transfection, RLuc cap-dependent translation, K562 cells; format: cell-based; details: 2 μM imatinib, 24 hours
# Protocol: (§1) The capped dicistronic mRNAs were generated by in vitro transcription of the dicistronic (linearized with PMEI) plasmid using the T7-based Megascript in vitro transcription kit (Ambion) as per the manufacturer's protocol. The integrity of the transcripts was analyzed on a 1% agarose gel.
# (§2) Approximately 6×10^5 cells (K562) were seeded in 6-well plates and 2 μg of in vitro synthesized dicistronic mRNA was transfected per well using the Transmessenger transfection kit (Qiagen). A ratio of 1:6 (1 μg of RNA: 6 μL of transmessenger reagent) was used according to the manufacturer's instructions. […] Cell lysates were then assayed for luciferase activities as described above. All transfections were performed in duplicate and carried out 3 times.
# (§3) To determine whether Bcr-Abl regulation is compartmentalized and further examine whether it functions post-transcriptionally, an RNA transient transfection was carried out in K562 cells. […] In these experiments the inventors again utilized CVB3 as a control for regulation in subcellular compartments since it predominantly depends on cytoplasmic machinery for translation.
# [7] = test system: LEF-1 IRES; test: Capped dicistronic RNA transfection, LEF-1 IRES firefly luciferase, K562 cells; format: cell-based; details: 2 μM imatinib, 24 hours, p<0.001
# Protocol: as §1, §2, §3
# [8] = test system: CVB3 IRES; test: Capped dicistronic RNA transfection, CVB3 IRES firefly luciferase, K562 cells; format: cell-based; details: 2 μM imatinib, 24 hours
# Protocol: as §1, §2, §3
# [9] = test system: LEF-1 protein expression in primary CML cells; test: LEF-1 protein expression in primary CML cells, Western blot; format: cell-based, human; details: rapamycin 10 ng/mL, 24 hours
# Protocol: PB mononuclear cells (MNCs) were obtained by centrifugation through Ficoll-Hypaque, washed in PBS, and cryopreserved. To expand CML cells in vitro, cells were thawed and grown in media supplemented with 10% FBS and a growth factor cocktail consisting of 20 ng/ml granulocyte-macrophage colony stimulating factor, 20 ng/ml recombinant human interleukin 3, 20 ng/ml recombinant human stem cell factor, and 100 ng/ml granulocyte colony-stimulating factor. Following this, cells were incubated in liquid culture for 72-96 hrs, at 37° C. in a humidified atmosphere with 5% CO2 in serum-free medium (SFM) (StemCell Technologies, Vancouver, BC, Canada) supplemented with growth factors (GF) at concentrations similar to that found in stroma-conditioned medium. All cytokines were from PeproTech, Rocky Hills, N.J., except for GM-CSF (sargramostim, Immunex, Seattle, Wash.) and G-CSF (filgrastim, Amgen, Thousand Oaks, Calif.).
# [10] = test system: LEF1 IRES; test: Dicistronic DNA transfection dual luciferase assay, LEF1 IRES, Ba/F3-Bcr-Abl-WT cells; format: cell-based, murine
# Protocol: (§4) For transfection of the dicistronic plasmids into Ba/F3 cells, approximately 10×10^6 cells were seeded in […] and 10 μg of the reporter plasmid was transfected via a BTX 600 electroporator. […] Cell lysates were prepared for dual luciferase assays 8 hours post-transfection. […] Cell lysates were prepared for dual luciferase assays 24 hours post-transfection. Transfections were performed in duplicate and each experiment was carried out at least 3 times.
# (§5) Cell lysates were assayed for luciferase activities using the Dual Luciferase Reporter Assay System (Promega) according to the manufacturer's protocol. Assays were performed using a SIRIUS luminometer (Berthold Detection Systems). FLuc:RLuc ratios were calculated for each sample, and the average value is represented as fold elevation over background, which is the Firefly luciferase: Renilla luciferase ratio (FLuc:RLuc) measured from the vector in the absence of an insert. […]
# (§6) The dicistronic vector depicted in FIG. 4A contains 2 cistrons separated by an intercistronic region that also contains a hairpin structure. […] A dicistronic construct that contains the full length 1.2 kb LEF1 5′UTR and IRES, the empty vector with no insert (pRSTF), and the viral IRES of the well characterized coxsackievirus B3 (CVB3) were analyzed for comparison. […]
# [11] = test system: CVB3 IRES; test: Dicistronic DNA transfection dual luciferase assay, CVB3 IRES, Ba/F3-Bcr-Abl-WT cells; format: cell-based, murine; details: 10 ng/mL rapamycin, 6 hours
# Protocol: as §4, §5, §6
# [12] = test system: cap-dependent translation (RLuc); test: Dicistronic DNA transfection, RLuc cap-dependent translation, Ba/F3-Bcr-Abl-WT cells; format: cell-based, murine; details: inhibitors for 6 hours
# Protocol: as §4
# Cell lysates were assayed for luciferase activities using the Dual Luciferase Reporter Assay System (Promega) according to the manufacturer's protocol. Assays were performed using a SIRIUS luminometer (Berthold Detection Systems). FLuc:RLuc ratios were calculated for each sample, and the average value is represented as fold elevation over background, which is the Firefly luciferase: Renilla luciferase ratio (FLuc:RLuc) measured from the vector in the absence of an insert.
# as §6
molecule,measurement,setting,value
"Cc1ccc(NC(=O)c2ccc(CN3CCN(C)CC3)cc2)cc1Nc1nccc(-c2cccnc2)n1 [imatinib, imatinib mesylate]",LEF-1 protein levels,[1],significantly down-regulated
same,decrease of LEF1 mRNA after normalizing with GAPDH mRNA levels,[2],2 fold
same,decrease of LEF1 mRNA levels (3.6 kb and 3.0 kb mRNAs),[2],3 fold
same,reduction of GAPDH mRNA levels,[3],1.4 fold
same,decrease in LEF-1 IRES activity,[4],2.3 fold
same,decrease in LEF-1 IRES activity,[4]; listed as Imatinib,3-4 fold and 3 fold
same,"reduction of RLuc translation, average",[5],2.6 fold
same,"inhibition of RLuc translation, average",[6],3.4 fold
same,reduction of LEF-1 IRES activity in the cytoplasm,[7],45%
same,effect on CVB3 IRES activity,[8],insensitive
CO[C@H]1C[C@@H]2CC[C@@H](C)[C@@](O)(O2)C(=O)C(=O)N2CCCC[C@H]2C(=O)O[C@H]([C@H](C)C[C@@H]2CC[C@@H](O)[C@H](OC)C2)CC(=O)[C@H](C)/C=C(\C)[C@@H](O)[C@@H](OC)C(=O)[C@H](C)C[C@H](C)/C=C/C=C/C=C/1C [rapamycin],LEF-1 protein levels,[9],no effect
same,LEF-1 protein levels,[1],no effect
same,decrease of LEF1 mRNA levels (3.6 kb and 3.0 kb mRNAs),[2],~2 fold
same,decrease in LEF-1 IRES activity (FLuc:RLuc),"[10]; 10 ng/mL rapamycin, 6 hours",38%
same,decrease in CVB3 IRES activity (FLuc:RLuc),[11],33%
same,"decrease in RLuc activity (cap-dependent translation), average",[12],2 fold
"LEF1 IRES: human LEF1 5'UTR (1.178 kb) internal ribosome entry site, SEQ ID NO:1, in dicistronic vector pRSTF-LEF(1.2) (nucleic acid, listed as Homo sapiens, (298)..(1095) IRES Sequence; (298)..(656) IRES Module 1; (656)..(1095) IRES Module 2) DNA: TCAGCGCCGGCGAGGCGCGGGAGGAGGAGAAGCAGTGGGGAGGCGCAGCCGCTCACCTGCGGGGCAGGGCGCGGAGGAGGGACCCGGGCTGCGCGCTCTCGGGCCGAGGAACCAGGACGCGCCCGGAGCCTCGCACGCGGCCAAGCTCGGGGCGTCCCCTCCCCTCGGCCGGGCGAACTCAAGGGGCGCAGCTCTTTGCTTTGACAGAGCTGGCCGGCGGAGGCGTGCAGAGCGGCGAGCCGGCGAGCCAGGCTGAGAAACTCGAGCCGGGAACAAAGAGGGGTCGGACTGAGTGTGTGTGTCGGCTCGAGCTCCGGGCAGAGGCATTTGGGCCCGAGGCCCCCGCTGTGACTCCCCGAGACTCCGCAGTGCCCTCCACTGCGGAGTCCCCGCGCTTGCCGGCAAAAACTTTATTCTTGGCAAACTTCTCTTTCTCTTCCCCTCCTCCTCGGCCCCCATCTTCTGCTCCTCCTCCTTCTCTAGCAGATTAAATGAGCCTCGAGAAGAAAAACCGAAGCGAAAGGGAAGAAAATAAGAAGATCTAAAACGGACATCTCCAGCGTGGGTGGCTCCTTTTTCTTTTTCTTTTTTTCCCACCCTTCAGGAAGTGGACGTTTCGTTATCTTCTGATCCTTGCACCTTCTTTTGGGGCAAACGGGGCCCTTCTGCCCAGATCCCCTCTCTTTTCTCGGAAAACAAACTACTAAGTCGGCATCCGGGGTAACTACAGTGGAGAGGGTTTCCGCGGAGACGCGCCGCCGGACCCTCCTCTGCACTTTGGGGAGGCGTGCTCCCTCCAGAACCGGCGTTCTCCGCGCGCAAATCCCGGCGACGCGGGGTCGCGGGGTGGCCGCCGGGGCAGCCTCGTCTAGCGCGCGCCGCGCAGACGCCCCCGGAGTCGCCAGCTACCGCAGCCCTCGCCGCCCAGTGCCCTTCGGCCTCGGGGGCGGGCGCCTGCGTCGGTCTCCGCGAAGCGGGAAAGCGCGGCGGCCGCCGGGATTCGGGCGCCGCGGCAGCTGCTCCGGCTGCCGGCCGGCGGCCCCGCGCTCGCCCGCCCCGCTTCCGCCCGCTGTCCTGCTGCACGAACCCTTCCAACTCTCCTTTCCTCCCCCACCCTTGAGTTACCCCTCTGTCTTTCCTGCTGTTGCGCGGGTGCTCCCACAGCGGAGCGGAGATTACAGAGCCGCCGGGATGCCCCAACTCTCCGGAGGAGGTGGCGGCGGCGGGGGGGACCCGGAACTCTGCGCCACGGACGAGATGA",elevation in the FLuc:RLuc ratio over empty vector,"[10]; 8 hours post-transfection, no inhibitor",55 fold
